These results are taken from publication PMC11013284, “Chemoselective Synthesis and Anti-Kinetoplastidal Properties of 2,6-Diaryl-4H-tetrahydro-thiopyran-4-one S-Oxides: Their Interplay in a Cascade of Redox Reactions from Diarylideneacetones” (Molecules, 2024).

Series [1] relates to Trypanosoma brucei brucei trypomastigotes, suramin-sensitive strain (Squib 427). Briefly: T. b. brucei growth/viability assay (resazurin). Format: cell-based. The note with it: for IC50: 3 days. The method, then:
After 3 days, parasite growth was assessed fluorimetrically following the addition of resazurin. After 24 h at 37 °C, fluorescence was measured (λex = 550 nm, λem = 590 nm). The results were expressed as a percentage reduction in parasite growth/viability compared to control wells, and a 50% inhibitory concentration (IC50) was calculated.
On the technique in general: The colour change of resazurin is a common sign of viable cells or microbes.

Series [2] deals with WT LV9 L. donovani intramacrophage amastigotes. Briefly: L. donovani intramacrophage amastigote assay. Format: cell-based, Leishmania donovani. The note with it: WT LV9; ± SD in Tables S5/S6; read-out: IC50 L. donovani intramacrophage amastigotes.
In a further series the test system is macrophages. The note with it: bracketed value after the intramacrophage IC50 (Table S5); Table S6.
In series [3] the test system is Trypanosoma cruzi (Tulahuen CL2 β-galactosidase) amastigotes in hMRC-5SV2 cells. Briefly: T. cruzi intracellular amastigote assay (β-galactosidase/CPRG). The format is cell-based. The note with it: intracellular amastigotes, 7 days; for IC50: read-out: IC50 T. cruzi intramacrophage amastigotes (converted). The method, then:
A nifurtimox-sensitive strain (Tulahuen CL2 β-galactosidase) in human lung fibroblast hMRC-5SV2 cells was incubated for 7 days in 96-well plates with five concentrations of compound (64, 16, 4, 1, and 0.25 μM). The parasitic burden was evaluated through the activity of the enzyme β-galactosidase on a specific chlorophenol red ß-D-galactopyranoside (CPRG) substrate. Live parasites converted the yellow-orange CPRG substrate into the red chromophore chlorophenol red, yielding a dark-red solution, which could be quantitatively measured at 540 nm after 4 h of incubation at 37 °C. The results were expressed as a percentage reduction in parasite growth/viability compared to control wells, and an IC50 was calculated.

For series [4], the system named is L. infantum (MHOM/MA(BE)/67) amastigotes in primary peritoneal mouse macrophages. Briefly: L. infantum intramacrophage amastigote assay (microscopic burden). Format: cell-based, Leishmania infantum. The note with it: 5 days, mouse macrophages as host. The method, then:
L. infantum (MHOM/MA(BE)/67 strain) amastigote were incubated for 5 days in 96-well plates with five concentrations of compound (64, 16, 4, 1, and 0.25 μM). Primary peritoneal mouse macrophages were used as host cells. Parasite burdens (i.e., the number of amastigotes per macrophage) were microscopically assessed. The results were expressed as a percentage reduction in parasite burden compared to untreated control wells, and an IC50 was calculated.

The test system of series [5] is human diploid embryonic lung fibroblast hMRC-5SV2 cells. Briefly: in vitro. The protocol:
(§1) The cytotoxicity of compounds was evaluated toward human diploid embryonic lung fibroblast hMRC-5SV2 cells, derived from fetal lung tissue and first described in 1970. hMRC-5SV2 cells were cultured in 96-well plates with five concentrations of the compound (64, 16, 4, 1, and 0.25 μM). After 3 days of incubation, the cell viability was assessed fluorimetrically after the addition of resazurin, and fluorescence was measured (λex = 550 nm, λem = 590 nm). The results were expressed as a percentage reduction in cell growth/viability compared to control wells, and a 50% cytotoxic concentration (CC50) was calculated. The reference cytotoxic drugs were tamoxifen or ivermectin. Additionally, toxicity toward mouse macrophages was qualitatively observed. Three concentrations were included (64, 16, and 4 µM), and the range of toxicity was ranked from the least toxic to the most toxic compound.

The subject of the next series is murine macrophages. Briefly: Qualitative toxicity toward mouse macrophages. The conditions noted are these: concentration at which toxicity was observed; 64, 16 and 4 µM tested. The method, then: as §1

SMILES strings stand for the structures. Read-outs that look alike come from different tables or passages of the source.

In the case of `COc1ccc(C2CC(=O)CC(c3ccc(OC)c(OC)c3)S2)cc1OC` (racemic) [2j], the IC50 in series [1] is 8.1 µM; in series [2], 19.3 ± 7.1 µM; in series [3], 7.3 µM; in series [4], 32.5 µM. The “observed macrophage death / lysis observed at” value in the series with macrophages was over 150 µM. Also, it took 9.3 µM to reach half-maximal cytotoxicity in series [5] (CC50).

On to `O=C1CC(c2ccccn2)S(=O)(=O)C(c2ccccn2)C1` (stereo not drawn) [4′w, cis-2,6-Di-(pyridin-2-yl)-4H-tetrahydrothiopyran-4-one 1,1-dioxide], for which the concentration for half-maximal inhibition (IC50) is 0.1 µM in series [1], 1.6 µM in series [2], 0.4 µM in series [3] and 2 µM in series [4]. Besides, the “anti-trypanosomal activity (IC50)” value in series [1] (Trypanosoma (T. cruzi and T. b. brucei)) is reported as “high nanomolar range”. In addition, the “Toxicity (T) observed toward murine macrophages” value in the series with murine macrophages is reported as “T3 (T3 = 4)”. Further, the “IC50 L. infantum intramacrophage amastigotes” value in series [4] was “excellent potency”. This compound also showed a CC50 in series [5] (human, 3 days) of 7.5 µM.

Regarding `N#Cc1ccc(C2CC(=O)CC(c3ccc(C#N)cc3)S2)cc1` (racemic) [2t], the 50% inhibitory concentration (IC50) in series [1] is 1.2 µM; in series [2], over 50 µM; in series [3] it was 42.5 µM; in series [4], over 64 µM. Also, in the series with macrophages, the “observed macrophage death / lysis observed at” value was over 100 µM. The CC50 in series [5] is over 64 µM.

On to `CC(=O)Nc1ccc(C2CC(=O)CC(c3ccc(NC(C)=O)cc3)S2)cc1` (racemic) [2v], for which the IC50 is over 64 µM in series [1], over 50 µM in series [2], over 64 µM in series [3] and over 64 µM in series [4]. For the same compound, the “observed macrophage death / lysis observed at” value in the series with macrophages is given as over 100 µM. The compound also gave a CC50 in series [5] of over 64 µM.

Regarding `CC(=O)Nc1ccc(/C=C/C(=O)/C=C/c2ccc(NC(C)=O)cc2)cc1` [1v], the IC50 in series [1] was 0.5 µM; in series [2] it was over 50 µM; in series [3], 10.2 µM; in series [4] it was 8.1 µM. Also, the “observed macrophage death / lysis observed at” value in the series with macrophages was found to be 100 µM. For the same compound, in series [5], the midpoint of cytotoxicity, the CC50, lay at 34 µM.

For the compound `O=C1CC(c2ccccc2Cl)SC(c2ccccc2Cl)C1` (racemic) [2e], the IC50 was over 64 µM in series [1], 14.2 ± 1.3 µM in series [2], over 64 µM in series [3] and 32 µM in series [4]. In addition, the “observed macrophage death / lysis observed at” value in the series with macrophages is recorded as over 150 µM. The compound further came in with a CC50 in series [5] of over 64 µM.

Regarding `O=C1CC(c2ccc(C(F)(F)F)cc2)SC(c2ccc(C(F)(F)F)cc2)C1` (racemic) [2r], the IC50 in series [1] was 0.5 µM; in series [2], 68.6 ± 41.2 µM; in series [3] it was 2.5 µM; in series [4], 32.5 µM. In addition, the “observed macrophage death / lysis observed at” value with macrophages was 200 µM. In series [5], this compound had a CC50 of 10.2 µM.

Turning to `O=C1CC(c2ccco2)SC(c2ccco2)C1` (racemic) [2z], the IC50 in series [1] was over 64 µM; in series [2], 3.2 ± 0.8 µM; in series [3], over 64 µM; in series [4], over 64 µM. In addition, the “observed macrophage death / lysis observed at” value with macrophages is over 150 µM. Also, the CC50 in series [5] was over 64 µM.

Regarding `Cc1ccccc1/C=C/C(=O)/C=C/c1ccccc1C` [1b], the IC50 in series [1] is over 64 µM; in series [2], 11.9 ± 1.1 µM; in series [3] it was 51.7 µM; in series [4], 8.1 µM. Further, the “observed macrophage death / lysis observed at” value in the series on macrophages is given as over 37.5 µM. The same compound had a CC50 in series [5] of over 64 µM.

For `COc1ccc(C2CC(=O)CC(c3ccc(OC)cc3)[S+]2[O-])cc1` (stereo not drawn) [3″d, (anti)- and (syn)-cis-2,6-Di-(p-anisyl)-4H-tetrahydro-thiopyran-4-one 1-oxides], the IC50 in series [1] is 2.4 µM; in series [2], 35 µM; in series [3] it was 8.5 µM; in series [4], 27.3 µM. Further, the “Toxicity (T) observed toward murine macrophages” value with murine macrophages is “T1 (T1 = 64)”. For the same compound, the “IC50 T. cruzi intramacrophage amastigotes” value in series [3] is recorded as “moderate potency”. In series [4], the “IC50 L. infantum intramacrophage amastigotes” value was “moderate potency”. This compound had a CC50 in series [5] (human, 3 days) of 32 µM.

Usually IC50 stands for the concentration that gives 50% inhibition. The term CC50 denotes the concentration at which the toxic effect on the cells reaches its halfway point.
